Target: Mitogen-activated protein kinase 14 (Homo sapiens, UniProt Q16539)
Assay: Displacement of SKF86002 from recombinant human p38alpha by fluorescence-based assay; call rule not given here

Mitogen-activated protein kinase 14, sequence (Q16539 whole entry): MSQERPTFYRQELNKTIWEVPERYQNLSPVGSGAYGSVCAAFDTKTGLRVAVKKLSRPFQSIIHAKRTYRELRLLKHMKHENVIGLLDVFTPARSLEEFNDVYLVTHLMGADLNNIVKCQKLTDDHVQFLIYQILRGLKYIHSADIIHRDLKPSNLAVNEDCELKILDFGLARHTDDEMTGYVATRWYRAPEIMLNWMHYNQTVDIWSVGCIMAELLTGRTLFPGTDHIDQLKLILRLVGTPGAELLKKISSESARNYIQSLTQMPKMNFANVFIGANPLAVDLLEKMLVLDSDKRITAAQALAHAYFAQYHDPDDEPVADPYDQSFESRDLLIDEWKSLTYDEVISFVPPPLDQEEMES

SMILES	IC50 (read-out: IC50) [nM]	IC50
CC(O)c1nc(-c2cccc(CO)c2)c(-c2ccnc(NC(=O)c3ccccc3)c2)s1 (stereo not given)	460	–
CCc1nc(-c2cccc(C(=O)O)c2)c(-c2ccnc(NC(=O)c3ccccc3)c2)s1	1500	–
CC(O)c1nc(-c2cccc(C(=O)O)c2)c(-c2ccnc(NC(=O)c3ccccc3)c2)s1 (stereo not given)	–	Not Active

More lines, in order of falling IC50 (read-out: IC50), values ahead:

IC50 (read-out: IC50) [nM]	SMILES	IC50
310	CCc1nc(-c2cccc(CO)c2)c(-c2ccnc(NC(=O)c3ccccc3)c2)s1	–
38	Cc1cccc(-c2nc(C(C)O)sc2-c2ccnc(NC(=O)c3ccccc3)c2)c1 (stereo not given)	–
